According to paper PMC10285648, “iTAG an optimized IMiD-induced degron for targeted protein degradation in human and murine cells” (iScience, 2023):

What was measured:
cMYC-EGFP-DCD23 = assay: Degradation of cMYC-EGFP-DCD23 in HMEC (flow cytometry, western blotting); type: cell-based, human; settings: EGFP cellular degradation data for the DCD23, related to Figure 1 (10uM, 4h)
Source text: (§1) To systematically delineate the optimal DCD/degrader combination for targeted protein degradation, we undertook a matrix approach evaluating all 23 DCD tags against 6 small molecule degraders. […] To control for any potential off-target effects of the IMiD/CeLMOD agents that could indirectly affect the target of interest, we designed controls in which the specific DCD and the EGFP sequences were interspaced by a P2A ribosomal “skipping” sequence,[32] leading to separate translation of the DCD and the target protein (Figure 1A). These constructs were then inserted into a doxycycline-inducible lentiviral vector system and stably expressed in hTERT immortalized human mammary epithelial cells (HMEC), a suitable model to assess the functional consequences of cMYC degradation. cMYC was tagged at the C-terminus end for the initial screening experiments.
(§2) Figure 1 Design and experimental evaluation of the DCD tags (A) Representation of the experimental pipeline used to evaluate the different DCD constructs. […] Median EGFP intensity was measured in each condition using flow cytometry (3 independent experiments, normalized to the control and represented as mean ± SD). […] The protein lysates were probed for cMYC levels using western blotting. […] Target loss was evaluated either by measuring EGFP median intensity using flow cytometry or western blotting for cMYC protein (3 independent experiments, normalized to the control and represented as mean ± SD). […] Target loss was evaluated as in (D) (3 independent experiments, normalized to the control and represented as mean ± SD). […] Protein lysates were collected and probed for cMYC and p21 using western blotting. […] Protein lysates were collected and probed for cMYC and p21 using western blotting. […] These were left out as controls with no test substance.
(§3) Following degrader treatment cells were collected and DAPI was added to the cell suspension at 1 μg/mL to allow the exclusion of dead cells. EGFP signal was measured using BD LSR II flow cytometer (BD Biosciences). FlowJo 10 Software (FlowJo) was used for data processing.
Cells were lysed with SDS lysis buffer (2% SDS, 10% Glycerol, 50mM Tris pH 6.8) and boiled at 95°C for 30min. Protein concentration was measured using Pierce BCA Protein Assay Kit (ThermoFischer) following manufacturer’s recommendations. Samples were ran in NuPAGETM 10% Bis-Tris Midi electrophoresis gels (Invitrogen) using NuPAGETM MES SDS running buffer (ThermoFischer Scientific).
For western blotting membranes were blocked in a solution of 5% (w/v) bovine serum albumin (BSA; Sigma-Aldrich) dissolved in TBS-0.1% Tween 20 (Sigma-Aldrich) then incubated at 4°C overnight with the primary antibodies diluted in 5% (w/v) BSA/TBS-T. The membranes where then washed and incubated with anti-mouse and/or anti-rabbit secondary antibodies (LI-COR Biosciences) for 2h at RT diluted in 5% (w/v) BSA/TBS-T then washed and imaged using the LI-COR Odyssey (LI-COR Biosciences). Images were analyzed using Image Studio Lite software (LI-COR Biosciences).

[1] = system: HMEC, HEK293T, MDA-MB-231, Kelly cells; assay: Cell viability assay (CellTiter-Blue); type: cell-based, human; settings: 5 days treatment
Method: By endpoint, CellTiter-Blue reagent (Promega) was added to each well, incubated for 3 h at 37°C and absorbance was measured with a plate reader at 570nm. Average background absorbance value was subtracted from all readings when plotting the viability curve.

CRBN/DDB1 complex = target: T1, CRBN/DDB1 complex (Homo sapiens, UniProt Q96SW2); assay: IMiD-based fluorescence polarisation assay; type: binding; settings: displacement of Sulfo-Cy5 IMiD probe (5 nM), 80 nM CRBN/DDB1; read-out: FP IC50
T1 construct: WT full length CRBN/DDB1 complex was added; made in house; host or cells: Sf9 insect cells (baculovirus)
Method: First, we wanted to confirm that the IMiD/CELMoDs used in our study were effectively binding to CRBN and to estimate their binding affinities. […] WT full length CRBN/DDB1 complex was added with a Tempest liquid handler (Formulatrix, USA) to all wells to a final concentration of 80 nM, except for low controls where WT CRBN was substituted with mutant [MUT]-[MUT] CRBN (mutant unable to bind the probe). The Echo was also used to add 5 nM final concentration of Sulfo-Cy5 fluorescent IMiD-based probe (Figure S6A) to each well. Plates were sealed, centrifuged at 200 g for 1 min and stored overnight at 4°C. Fluorescence Polarization and total fluorescence were read using a PHERAstar FSX plate reader (BMG Labtech, Germany).

cMYC-EGFP-DCD19 = assay: Flow cytometry of EGFP signal, cMYC-EGFP-DCD19 in HMEC; type: cell-based, human; settings: 10uM, 4h
Source text: as §1, §2, §3

cMYC-EGFP-DCD2 = assay: Flow cytometry of EGFP signal, cMYC-EGFP-DCD2 in HMEC; type: cell-based, human; settings: 10uM, 4h
Source text: To systematically delineate the optimal DCD/degrader combination for targeted protein degradation, we undertook a matrix approach evaluating all 23 DCD tags against 6 small molecule degraders. First, we fused the DCD tags with Enhanced Green Fluorescent Protein (EGFP) and a target protein of interest, focusing initially on the proto-oncogene cMYC (Figure 1A). cMYC function has been extensively studied and downstream perturbations of cMYC loss are well characterised,[29]^,[30]^,[31] providing a good reference to test the iTAG system. […]
Figure 1 Design and experimental evaluation of the DCD tags (A) Representation of the experimental pipeline used to evaluate the different DCD constructs. […] Median EGFP intensity was measured in each condition using flow cytometry (3 independent experiments, normalized to the control and represented as mean ± SD). […] Target loss was evaluated either by measuring EGFP median intensity using flow cytometry or western blotting for cMYC protein (3 independent experiments, normalized to the control and represented as mean ± SD). […] Target loss was evaluated as in (D) (3 independent experiments, normalized to the control and represented as mean ± SD). […]

T1 sequence (Q96SW2 whole entry): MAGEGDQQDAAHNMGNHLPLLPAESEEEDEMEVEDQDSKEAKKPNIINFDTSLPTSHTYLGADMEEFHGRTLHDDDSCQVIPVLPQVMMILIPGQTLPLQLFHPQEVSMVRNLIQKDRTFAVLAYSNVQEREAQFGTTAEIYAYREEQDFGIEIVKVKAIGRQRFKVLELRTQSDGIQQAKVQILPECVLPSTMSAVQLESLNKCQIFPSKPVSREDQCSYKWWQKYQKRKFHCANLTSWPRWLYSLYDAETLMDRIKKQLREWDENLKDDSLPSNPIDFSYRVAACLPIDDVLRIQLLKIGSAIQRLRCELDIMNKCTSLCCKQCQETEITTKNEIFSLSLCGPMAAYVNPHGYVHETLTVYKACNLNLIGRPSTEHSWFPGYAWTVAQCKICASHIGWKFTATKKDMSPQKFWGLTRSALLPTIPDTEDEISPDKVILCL
T1 sequence (Q16531 whole entry partner): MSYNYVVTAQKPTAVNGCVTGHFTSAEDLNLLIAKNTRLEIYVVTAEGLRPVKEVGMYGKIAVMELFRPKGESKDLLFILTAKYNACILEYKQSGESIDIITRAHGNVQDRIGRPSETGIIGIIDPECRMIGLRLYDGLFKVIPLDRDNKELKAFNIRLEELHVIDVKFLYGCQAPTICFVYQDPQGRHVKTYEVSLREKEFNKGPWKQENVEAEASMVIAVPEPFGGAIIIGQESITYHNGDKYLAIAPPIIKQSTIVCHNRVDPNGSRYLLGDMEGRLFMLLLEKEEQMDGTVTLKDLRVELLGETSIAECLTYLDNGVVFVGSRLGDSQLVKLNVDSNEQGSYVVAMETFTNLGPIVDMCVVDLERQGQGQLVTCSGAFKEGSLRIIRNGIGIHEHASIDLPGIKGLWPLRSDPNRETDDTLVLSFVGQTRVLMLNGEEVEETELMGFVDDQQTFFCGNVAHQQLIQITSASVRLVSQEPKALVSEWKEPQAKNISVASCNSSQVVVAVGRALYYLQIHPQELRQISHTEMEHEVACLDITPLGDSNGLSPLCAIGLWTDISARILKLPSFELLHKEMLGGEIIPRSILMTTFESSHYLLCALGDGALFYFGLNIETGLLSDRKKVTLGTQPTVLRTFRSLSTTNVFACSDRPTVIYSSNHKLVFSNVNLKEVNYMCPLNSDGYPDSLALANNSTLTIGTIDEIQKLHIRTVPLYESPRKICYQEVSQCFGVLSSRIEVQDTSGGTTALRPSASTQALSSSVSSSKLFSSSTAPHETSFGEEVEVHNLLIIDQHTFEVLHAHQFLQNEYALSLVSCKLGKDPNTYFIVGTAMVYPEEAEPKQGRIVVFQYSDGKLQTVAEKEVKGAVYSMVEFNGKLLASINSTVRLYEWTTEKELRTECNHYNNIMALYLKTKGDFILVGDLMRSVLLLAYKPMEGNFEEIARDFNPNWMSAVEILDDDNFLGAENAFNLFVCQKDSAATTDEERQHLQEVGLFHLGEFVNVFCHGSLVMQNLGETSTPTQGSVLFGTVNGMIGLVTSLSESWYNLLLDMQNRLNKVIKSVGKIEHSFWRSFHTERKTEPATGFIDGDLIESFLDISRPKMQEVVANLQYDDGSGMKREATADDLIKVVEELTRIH

## Cc1ccc(NC(=O)NCc2ccc3c(c2)CN(C2CCC(=O)NC2=O)C3=O)cc1Cl (centres unmarked) [CC885]
cMYC-EGFP-DCD23
  Degradation as Log2 FC relative to DMSO: -1.27 Log2 FC
[1]
  cellular toxicity: significant cellular toxicity
CRBN/DDB1 complex
  IC50: 107 nM
cMYC-EGFP-DCD19
  loss of cMYC-EGFP signal: robust loss of cMYC-EGFP signal
cMYC-EGFP-DCD2
  change of EGFP signal: strong decrease in EGFP signal
